Measurements taken from BindingDB's records for doi:10.7270/Q2KP80J0 (The Scripps Research Institute Molecular Screening Center, 2007).

The compounds below were run against T1, Ephrin type-B receptor 4 (Homo sapiens, UniProt P54760) (assay: EphB4-ephrin-B2 interaction antagonists, dose response, biochemical, TNYL-RAW peptide displacement (AID 835)).
T1 sequence (P54760 whole entry): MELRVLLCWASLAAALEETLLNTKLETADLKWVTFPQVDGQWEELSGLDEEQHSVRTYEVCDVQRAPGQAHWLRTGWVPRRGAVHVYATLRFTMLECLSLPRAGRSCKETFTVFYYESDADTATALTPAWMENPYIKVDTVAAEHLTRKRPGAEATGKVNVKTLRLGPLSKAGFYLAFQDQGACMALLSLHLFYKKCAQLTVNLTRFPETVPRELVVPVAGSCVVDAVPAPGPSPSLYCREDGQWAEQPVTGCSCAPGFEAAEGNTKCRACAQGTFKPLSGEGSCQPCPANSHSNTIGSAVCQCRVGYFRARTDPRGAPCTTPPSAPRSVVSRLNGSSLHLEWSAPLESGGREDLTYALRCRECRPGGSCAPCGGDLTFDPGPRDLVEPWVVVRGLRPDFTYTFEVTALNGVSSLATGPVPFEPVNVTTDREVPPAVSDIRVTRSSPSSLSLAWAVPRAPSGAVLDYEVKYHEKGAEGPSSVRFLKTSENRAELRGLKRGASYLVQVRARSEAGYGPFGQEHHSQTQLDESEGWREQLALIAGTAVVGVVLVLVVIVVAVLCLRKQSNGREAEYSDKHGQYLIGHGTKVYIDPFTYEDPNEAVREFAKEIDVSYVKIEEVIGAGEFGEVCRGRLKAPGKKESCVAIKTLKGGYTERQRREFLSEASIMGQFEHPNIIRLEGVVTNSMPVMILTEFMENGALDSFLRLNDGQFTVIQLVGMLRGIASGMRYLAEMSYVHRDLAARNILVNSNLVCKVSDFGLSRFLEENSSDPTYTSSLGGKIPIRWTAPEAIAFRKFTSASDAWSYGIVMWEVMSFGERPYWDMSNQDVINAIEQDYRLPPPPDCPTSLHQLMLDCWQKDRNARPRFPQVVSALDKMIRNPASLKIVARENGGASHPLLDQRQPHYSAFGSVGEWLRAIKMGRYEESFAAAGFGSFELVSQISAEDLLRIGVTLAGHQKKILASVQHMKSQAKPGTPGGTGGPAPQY

Structure (SMILES) | IC50 [µM]
O=S(=O)(N1CCOCC1)N1CCN(c2ccccc2F)CC1 [4-[4-(2-fluorophenyl)piperazin-1-yl]sulfonylmorpholine] | > 79.4
COC(=O)c1ccc(NC(=O)CN2CCN(c3cccc(Cl)c3)CC2)cc1 [4-[[2-[4-(3-chlorophenyl)-1-piperazinyl]-1-oxoethyl]amino]benzoic acid methyl ester] | > 79.4
Fc1ccc(Sc2cc(Cl)c(-c3ccccc3)nn2)cc1 [4-chloranyl-6-(4-fluorophenyl)sulfanyl-3-phenyl-pyridazine] | > 79.4
Cc1ccc(-n2ncc3c(=O)n(CC(=O)N4CCCCCC4)cnc32)cc1 [5-(2-azepan-1-yl-2-oxoethyl)-1-(4-methylphenyl)-1,5-dihydro-4H-pyrazolo[3,4-d]pyrimidin-4-one] | > 79.4
Cc1onc(-c2ccccc2)c1C(=O)Nc1ccc(S(=O)(=O)NC2=NCCCCC2)cc1 [5-methyl-3-phenyl-N-[4-(3,4,5,6-tetrahydro-2H-azepin-7-ylsulfamoyl)phenyl]-1,2-oxazole-4-carboxamide] | > 79.4
O=C(c1cnc2ccc(S(=O)(=O)N3CCC4(CC3)OCCO4)cc2c1O)N1CCOCC1 [6-(1,4-dioxa-8-azaspiro[4.5]dec-8-ylsulfonyl)-3-(morpholin-4-ylcarbonyl)quinolin-4(1H)-one] | > 79.4
O=C1CN(C(=O)CN2CCCCC2)C(c2ccccc2)c2cc(Br)ccc2N1 (stereo not given) [7-bromanyl-5-phenyl-4-(2-piperidin-1-ylethanoyl)-3,5-dihydro-1H-1,4-benzodiazepin-2-one] | > 79.4
CCc1cccc2c(C#N)cn(CC(=O)N3CCOCC3)c12 [7-ethyl-1-[2-(4-morpholinyl)-2-oxoethyl]-1H-indole-3-carbonitrile] | > 79.4

Now from value to compound:

IC50 [µM] | Structure (SMILES)
> 79.4 | CCOC(=O)N1CCC(n2c(SCC(=O)NCCC3=CCCCC3)nc3ccccc3c2=O)CC1 [4-[2-[[2-[2-(1-cyclohexenyl)ethylamino]-2-oxoethyl]thio]-4-oxo-3-quinazolinyl]-1-piperidinecarboxylic acid ethyl ester]
> 79.4 | CC(O)c1cccc(NC(=O)CCC(=O)O)c1 (stereo not given) [4-[3-(1-hydroxyethyl)anilino]-4-keto-butyric acid]
> 79.4 | O=C(O)CCC(=O)N1CCN(c2nc(-c3ccccc3Cl)c3cc(Br)ccc3n2)CC1 [4-[4-[6-bromanyl-4-(2-chlorophenyl)quinazolin-2-yl]piperazin-1-yl]-4-oxidanylidene-butanoic acid]
> 79.4 | CCOC(=O)c1ccc(NC(=S)NCC(O)c2ccccc2)cc1 (stereo not given) [4-[(2-hydroxy-2-phenyl-ethyl)thiocarbamoylamino]benzoic acid ethyl ester]
> 79.4 | O=C(O)c1ccc(CSc2n[nH]c(-c3ccco3)n2)cc1 [4-[[5-(furan-2-yl)-1H-1,2,4-triazol-3-yl]sulfanylmethyl]benzoic acid]
17.8 | O=C(NN=C1C(=O)c2cccc3cccc1c23)c1ccc(Cl)cc1 [4-chloranyl-N-[(2-oxidanylideneacenaphthylen-1-ylidene)amino]benzamide]
> 79.4 | Cc1cccc2c(C(=O)O)c3c(nc12)CCCCC3 [4-methyl-7,8,9,10-tetrahydro-6H-cyclohepta[b]quinoline-11-carboxylic acid]
> 79.4 | Cc1ccc(-c2ccc(C(=O)O)[nH]2)cc1 [5-(4-methylphenyl)-1H-pyrrole-2-carboxylic acid]
> 79.4 | Oc1c(CN2CCCCC2)cc(COCc2ccccc2)c2cccnc12 [5-(benzoxymethyl)-7-(piperidinomethyl)quinolin-8-ol]
> 79.4 | COC(=O)c1ccc(COc2ccc3c(C)c(C)c(=O)oc3c2C)o1 [5-[(2-keto-3,4,8-trimethyl-chromen-7-yl)oxymethyl]furan-2-carboxylic acid methyl ester]
> 79.4 | CCCc1nnc(SCc2ccc(C(=O)OC)o2)n1N [5-[[(4-amino-5-propyl-1,2,4-triazol-3-yl)thio]methyl]-2-furancarboxylic acid methyl ester]
> 79.4 | Cc1cc(NC(c2ccc(Cl)cc2)c2ccc3cccnc3c2O)no1 (stereo not given) [7-[(4-chlorophenyl)-[(5-methyl-1,2-oxazol-3-yl)amino]methyl]quinolin-8-ol]
